The source of these data is patent publication US20070212339A1, “Use Of At Least One Effector Of Glutathione Metabolism Together With Alpha-Lipoic Acid For The Treatment Of Chronically Obstructive Lung Diseases” (ESPARMA GMBH, priority 2003, published 2007).

The structures appear in SMILES notation.

In test [1] the test system is primary alveolar macrophages of COPD patients. Kind of test: Cellular thiol status (CMFDA) of primary alveolar macrophages of COPD patients. The test is classed as cell-based, human. To be noted: for Thiols, intracellular (CMFDA)[%]: RPMI1640. The method, then:
The intercellular thiol content at the individual cell level was determined using 5-chloromethylfluorescein diacetate (CMFDA) in flow cytofluorimetry [Cytometry 1994; 15:349-358, Cytometry 1997; 29:76-82]. CMFDA which is primarily non-fluorogenic is here passively absorbed by the cell. Via the chloromethyl residue there is binding to cytoplasmatic thiol groups. After the acetate residues have been split off by unspecific cellular esterases, this complex which is now cell membrane-impermeable becomes fluorogenic at an excitation wavelength of λex=490 nm with an emission wavelength of λem=520 nm. The mean fluorescence intensity of the sample (10,000 cells) is directly proportional to the concentration of the intracellular thiol groups. Alveolar macrophages were isolated from the bronchoalveolar lavage fluid of COPD patients, taken up in cell culture medium and incubated in a gassing incubator at 37° C., a relative air humidity of 98% and a relative air-CO2 content of 7.5%. In order to check the influence of the combinations used according to the invention on the thiol status of the […] macrophages, in each case one fraction was treated with α-lipoic acid, the effector of glutathione metabolism ambroxol or with the combination of α-lipoic acid/ambroxol, whilst another fraction was used in each case as an untreated control. Untreated alveolar macrophages from healthy, non-COPD patients served as the normal comparison. The cellular thiol status was determined by means of the measuring method described under 1. The effect of the combination of α-lipoic acid and ambroxol in time kinetics over 96 hours in relation to healthy cells is shown in Table 5. In a test assembly identical to that of Example 3, alveolar macrophages from COPD patients were in each case treated with α-lipoic acid, the effector silibinin or with the combination of α-lipoic acid/silibinin, whilst another fraction was again used in each case as an untreated control. Untreated alveolar macrophages from healthy, non-COPD patients served here, too, as the normal comparison. The cellular thiol status was determined by means of the measuring method described under 1. The effect of the combination of α-lipoic acid and silibinin in time kinetics over 96 hours in relation to healthy cells is shown in Table 6.

For test [2] the test system is unchanged. In words: Phagocytosis rate of primary alveolar macrophages of COPD patients (cytofluorimetric test with opsonized fluorochrome-marked bacteria). The test is classed as cell-based, human. The conditions noted are these: for Phagoburst (mfi) [%]: RPMI1640; for phagocytosis rate: monosubstances, by comparison with the untreated control. The method, then: In a similar procedure to the one described in Example 3, alveolar macrophages were isolated and cultivated ex vivo. The phagocytosis efficiency was determined by a cytofluorimetric test at the single-cell level. The macrophages were co-cultivated with opsonized and fluorochrome-marked bacteria. The amount of bacteria absorbed in a defined period of time was assessed quantitatively via the fluorescence intensity in the macrophages and counted as the measurement for their capacity for phagocytosis. The influence of the combinations used according to the invention on the capacity of the […] macrophages for phagocytosis after a treatment period of up to 96 hours is shown in Table 7.

In test [3] the test system is alveolar macrophage cell line CRL 21-92 (NR8383). Kind of test: Intracellular thiol content (CMFDA, flow cytofluorimetry) of artificially thiol-depleted alveolar macrophage cell line. It counts as cell-based. The conditions noted are these: αLA 10.0 μg/ml alone, TDM. The method, then:
(§1) The established normal alveolar macrophage cell line CRL 21-92 (NR8383 [AgC11x3A; NR8383.1]) was used. The cells were taken up in special cell culture media and incubated in a gassing incubator at 37° C., a relative air humidity of 98% and a relative air-CO2 content of 5%. In order to check the influence of the combinations used according to the invention on the thiol status of thiol-deficient alveolar macrophages, these were artificially thiol-depleted. This came about by cultivation in thiol-deficient media (TDM) according to tested methods [Free Radic Biol Med 2000; 29:1160-1165]. Comparative cultures using complete media (RPMT 1640) were used for defining the best possible normal value under culture conditions. The intercellular thiol content at the individual cell level was determined using 5-chloromethylfluorescein diacetate (CMFDA) in flow cytofluorimetry [Cytometry 1994; 15:349-358, Cytometry 1997; 29:76-82]. CMFDA which is primarily non-fluorogenic is here passively absorbed by the cell. Via the chloromethyl residue there is binding to cytoplasmatic thiol groups. After the acetate residues have been split off by unspecific cellular esterases, this complex which is now cell membrane-impermeable becomes fluorogenic at an excitation wavelength of λex=490 nm with an emission wavelength of λem=520 nm. The mean fluorescence intensity of the sample (10,000 cells) is directly proportional to the concentration of the intracellular thiol groups. The expression of membrane-bound thiol groups was also determined by means of flow cytofluorimetry. Chloromethyl tetramethyl rhodamine (CMTMR) was used as the thiol conjugate under conditions of a blocked membrane potential and an inhibited diffusion capacity of the cells, [Exp Hematol 1997; 25(7): 601-607]. The fluorescence intensity of the bound fluorochrome molecules on the cell membrane is here again proportional to the quantity of thiol groups on the cell surface. Immortalised alveolar macrophages were artificially thiol-depleted in the above-described test assembly. The influence of the substances used according to the invention was checked over a period of 96 hours by measuring the intracellular thiol content and the membrane expression of thiols. Immortalised alveolar macrophages were artificially thiol-depleted in the test assembly described in Example 1. The influence of the substances used according to the invention was checked over a period of 96 hours by measuring the intracellular thiol content and the membrane expression of thiols.

Test [4] shares this test system. In words: Membrane-bound thiol expression (CMTMR, flow cytofluorimetry) of artificially thiol-depleted alveolar macrophage cell line. It counts as cell-based. The conditions noted are these: αLA 10.0 μg/ml alone, TDM. The method, then: as §1, with “conditions.” for “conditions. The intercellular thiol content at the individual cell level was determined using 5-chloromethylfluorescein diacetate (CMFDA) in flow cytofluorimetry [Cytometry 1994; 15:349-358, Cytometry 1997; 29:76-82]. CMFDA which is primarily non-fluorogenic is here passively absorbed by the cell. Via the chloromethyl residue there is binding to cytoplasmatic thiol groups. After the acetate residues have been split off by unspecific cellular esterases, this complex which is now cell membrane-impermeable becomes fluorogenic at an excitation wavelength of λex=490 nm with an emission wavelength of λem=520 nm. The mean fluorescence intensity of the sample (10,000 cells) is directly proportional to the concentration of the intracellular thiol groups.”

As to `Nc1c(Br)cc(Br)cc1CN[C@H]1CC[C@H](O)CC1` [Ambroxol, ambroxol], the “Thiols, intracellular (CMFDA)[%]” value in test [1] (24 h, Ambroxol [10.0 μ/ml] alone) was 67.4 ± 16.4%; in test [1] (48 h, Ambroxol [10.0 μ/ml] alone), 61.8 ± 11.5%; in test [1] (72 h, Ambroxol [10.0 μ/ml] alone), 61.6 ± 20.8%; in test [1] (96 h, Ambroxol [10.0 μ/ml] alone), 67.1 ± 8.4%. In test [1] (Example 3, monosubstances), the cellular thiol expression entry was “only a marginal rise”. Further, the “Phagoburst (mfi) [%]” value in test [2] (24 h, Ambroxol 10 μM alone) came out at 53.3 ± 10.9%; in test [2] (48 h, Ambroxol 10 μM alone), 59.2 ± 12.4%; in test [2] (72 h, Ambroxol 10 μM alone), 55.2 ± 19.2%; in test [2] (96 h, Ambroxol 10 μM alone), 61.9 ± 22.1%. Moreover, the phagocytosis rate entry in test [2] is listed as “had not altered”.
In the case of `O=C(O)CCCCC1CCSS1` (stereo not drawn) [αLA, α-lipoic acid], the cellular thiol expression entry in test [1] (Example 3, monosubstances) is listed as “no effect”; in test [1] (Example 4, monosubstances), “no modulation”. Also, the “Thiols, intracellular (CMFDA)[%]” value in test [1] (Table 5, 24 h, αLA 10.0 μg/ml alone) is on record as 60.3 ± 21.0%; in test [1] (Table 5, 48 h, αLA 10.0 μg/ml alone) it was 58.0 ± 17.0%; in test [1] (Table 5, 72 h, αLA 10.0 μg/ml alone), 46.2 ± 19.8%; in test [1] (Table 5, 96 h, αLA 10.0 μg/ml alone), 62.4 ± 6.3%; in test [1] (Table 6, 24 h, αLA 10.0 μg/ml alone), 60.3 ± 21.0%; in test [1] (Table 6, 48 h, αLA 10.0 μg/ml alone), 58.0 ± 68.6%. In addition, the “Thiols, intracellular (CMFDA)[%]” value is listed as 46.2 ± 19.8% in test [1] (Table 6, 72 h, αLA 10.0 μg/ml alone); 62.4 ± 6.3% in test [1] (Table 6, 96 h, αLA 10.0 μg/ml alone); 70.2 ± 8.4% in test [3] (Table 1, 24 h); 58.9 ± 10.4% in test [3] (Table 1, 48 h); 78.1 ± 30.0% in test [3] (Table 1, 72 h); 72.5 ± 19.1% in test [3] (Table 1, 96 h). Further, the “Thiols, intracellular (CMFDA)[%]” value in test [3] (Table 3, 24 h) amounted to 69.2 ± 28.2%; in test [3] (Table 3, 48 h), 91.1 ± 16.6%; in test [3] (Table 3, 72 h), 88.6 ± 26.2%; in test [3] (Table 3, 96 h) it was 114.8 ± 33.2%. Also, the “Phagoburst (mfi) [%]” value in test [2] (24 h, αLA 10.0 μg/ml alone) is 59.0 ± 11.7%; in test [2] (48 h, αLA 10.0 μg/ml alone) it was 60.2 ± 12.4%; in test [2] (72 h, αLA 10.0 μg/ml alone), 50.7 ± 9.0%; in test [2] (96 h, αLA 10.0 μg/ml alone), 64.9 ± 14.3%. Further, in test [2], the phagocytosis rate result is listed as “had not altered”. Besides, the “Thiols, in membrane (CMTMR)[%]” value in test [4] (Table 2, 24 h) was 91.1 ± 66.3%; in test [4] (Table 2, 48 h) it was 165.5 ± 36.3%; in test [4] (Table 2, 72 h), 82.3 ± 42.1%; in test [4] (Table 2, 96 h), 118.9 ± 76.6%; in test [4] (Table 4, 24 h), 108.8 ± 38.2%; in test [4] (Table 4, 48 h) it was 126.2 ± 68.6%. Moreover, the “Thiols, in membrane (CMTMR)[%]” value in test [4] (Table 4, 72 h) is listed as 90.7 ± 28.1%; in test [4] (Table 4, 96 h) it was 107.3 ± 57.4%.
Turning to `COc1cc(C2Oc3cc([C@H]4Oc5cc(O)cc(O)c5C(=O)[C@@H]4O)ccc3OC2CO)ccc1O` (stereo partly shown) [Silibinin, silibinin], the “Thiols, intracellular (CMFDA)[%]” value in test [1] (24 h, Silibinin 70 μg/ml alone) came out at 56.1 ± 12.4%; in test [1] (48 h, Silibinin 70 μg/ml alone), 59.0 ± 56.8%; in test [1] (72 h, Silibinin 70 μg/ml alone) it was 44.7 ± 14.0%; in test [1] (96 h, Silibinin 70 μg/ml alone), 49.4 ± 14.5%. Moreover, the “Phagoburst (mfi) [%]” value in test [2] (24 h, Silibinin 70.0 μg/ml alone) is 55.1 ± 12.2 %; in test [2] (48 h, Silibinin 70.0 μg/ml alone) it was 57.6 ± 8.5%; in test [2] (72 h, Silibinin 70.0 μg/ml alone), 54.2 ± 13.8%; in test [2] (96 h, Silibinin 70.0 μg/ml alone), 59.9 ± 21.2%.
